# Assays:
# WIL-FL* [1] = experiment: FP artefact counterscreen (compounds added after 24 h of proteinase K treatment); format: biochemical, human; design: concentration or dose not given beside the values; settings: compound added after 24 h PK treatment; mean ± sd, n=3
# Experimental: Secondly, to remove compounds that interfere with the FP measurement, the primary screen was repeated in triplicate but compounds were added after 24 h of proteinase K treatment (FIG. 1f). […] Bona fide hits should retain no FP beyond the low control.
# WIL-FL* [2] = molecular target: T1, WIL-FL* (Homo sapiens, UniProt P01721, K101C, form not given); experiment: PCFP assay with thermolysin; settings: mean ± sd, n=3; 6.75 μM compound
# WIL-FL [3] = molecular target: T2, WIL-FL (Homo sapiens, UniProt P01721); experiment: Kinetic unfolding in urea; format: biochemical; settings: 5 at 50 μM, WIL-FL 5 μM; 3.57 s^−1 for WIL-FL alone
# Experimental: Kinetic unfolding. WIL-FL (5 μM) in 50 mM sodium phosphate buffer, pH 7.0, containing 50 μM 5 was rapidly diluted into urea in 50 mM sodium phosphate buffer and 50 μM 5 using an APP SX-20 stopped flow fluorimeter at 37° C. The change in fluorescence emission >335 nm was measured as a function of time (λex=280 nm). […] Kinetic transients were fitted to single exponential curves and rates extracted.
# WIL-FL* [4] = molecular target: T1, WIL-FL*; experiment: Protease-coupled fluorescence polarization (PCFP) assay with proteinase K
# WIL-FL [5] = molecular target: T2, WIL-FL; experiment: Equilibrium unfolding, urea titration; format: biochemical; settings: 1 at 100 μM or 5 at 50 μM, WIL-FL 5 μM; 1.4 M without ligand
# Experimental: Equilibrium unfolding. WIL-FL (5 μM) was titrated against urea in 50 mM sodium phosphate buffer, pH 7.0, containing 50 μM 5 or 100 μM 1. After incubation overnight at 25° C., intrinsic tryptophan fluorescence emission spectra were measured using a Jasco 8600 fluorimeter (μex=280 nm, μem=300-420 nm). Average wavelength (also known as center of spectral mass) values were calculated using the equation: […]
# λi and Ii are the are the wavelength and intensity at i, respectively. Average wavelength data were normalized for comparison. […] Midpoint urea concentrations were calculated by fitting the titration data to a 2-state unfolding equation: […]
# x is the urea concentration (M), G is the free energy of unfolding (kJ mol^−1), m is the denaturant dependence of the unfolding reaction (kJ mol^−1 M^−1), R is the ideal gas constant, T is the temperature in K, a and c are the fluorescence of the folded and unfolded states, and b and d are the denaturant dependence of the fluorescence of the folded and unfolded states, respectively.
smiles,measurement,setting,value
Cc1cc(O)nc(N/N=C/C=C/c2ccccc2[N+](=O)[O-])n1 [Compound 5],Counterscreen activity (%),WIL-FL* [1],8.04 ± 2.6%
same,Thermolysin activity (%),WIL-FL* [2],61.1 ± 5.0%
same,unfolding rate constant (extrapolated to the absence of denaturant),WIL-FL [3],2.43 s⁻¹
same,EC50,WIL-FL* [4]; from dose response curves measured during the screening process,5.51 µM
same,PK activity (%),"WIL-FL* [4]; secondary screen, mean ± sd, n=3, 6.75 μM compound, FP retention after 24 h at 22° C., normalized to high and low controls",65.2 ± 2.8%
same,midpoint concentration of urea required to unfold the FL LC,WIL-FL [5],2.0 M

# Source: patent US11945806B2, “Stabilization of amyloidogenic immunoglobulin light chains” (The Scripps Research Institute, priority 2019, dated 2024)
